As usually defined, the Ki is a dissociation constant, usually derived from enzyme kinetics or from competition with a known ligand.

Chain of human PDE10A2 (Q9Y233 267-1055): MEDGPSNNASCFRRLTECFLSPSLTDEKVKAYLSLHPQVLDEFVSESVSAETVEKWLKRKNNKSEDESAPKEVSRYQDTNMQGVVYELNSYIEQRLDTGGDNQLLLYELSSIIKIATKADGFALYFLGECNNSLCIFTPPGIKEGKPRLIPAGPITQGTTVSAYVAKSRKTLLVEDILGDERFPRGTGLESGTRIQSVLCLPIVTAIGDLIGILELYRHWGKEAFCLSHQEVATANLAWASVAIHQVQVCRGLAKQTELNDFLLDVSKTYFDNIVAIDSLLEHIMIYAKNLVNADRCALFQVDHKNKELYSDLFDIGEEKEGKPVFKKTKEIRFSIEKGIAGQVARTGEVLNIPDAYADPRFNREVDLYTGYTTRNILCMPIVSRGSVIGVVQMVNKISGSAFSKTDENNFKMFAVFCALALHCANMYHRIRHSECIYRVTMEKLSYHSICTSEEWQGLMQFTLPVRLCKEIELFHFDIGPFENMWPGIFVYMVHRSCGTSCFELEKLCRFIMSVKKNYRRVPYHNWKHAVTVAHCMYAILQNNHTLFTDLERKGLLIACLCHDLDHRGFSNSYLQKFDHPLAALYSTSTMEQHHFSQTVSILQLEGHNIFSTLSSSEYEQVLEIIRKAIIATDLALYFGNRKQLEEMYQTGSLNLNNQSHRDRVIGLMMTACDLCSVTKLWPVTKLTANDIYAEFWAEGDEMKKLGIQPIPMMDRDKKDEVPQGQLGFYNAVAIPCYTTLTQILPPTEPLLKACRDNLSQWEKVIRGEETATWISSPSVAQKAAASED

In this assay the target is human PDE10A2 (Homo sapiens (Human), UniProt Q9Y233). As to the kind of experiment: PDE10 fluorescence polarization (IMAP FP) inhibition assay. Type of assay: biochemical. The conditions noted are these: human PDE10A2, FAM-labeled cAMP substrate, read-out: PDE10A Ki. In outline:
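Cytoplasmic lysate of AD293 cells transiently expressing human PDE10A2 (diluted to ~20% substrate conversion) incubated 30 min at room temperature with 50 nM FAM-cAMP in Tris pH 7.2 buffer with MgCl2, DTT. Activity read by IMAP fluorescence polarization. 0% inhibition set with 1% DMSO, 100% with reference PDE10 inhibitor.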
For the molecule `COc1ccc([C@H]2C[C@@H]2COc2nc(C)ncc2-c2ccn(C)c(=O)c2C#N)nc1` [Example 104, 4-(4-(((1S,2S)-2-(5-methoxypyridin-2-yl)cyclopropyl)methoxy)-2-methylpyrimidin-5-yl)-1-methyl-2-oxo-1,2-dihydropyridine-3-carbonitrile], the Ki turned out to be 8.16 nM.
The value for `COc1ccc([C@H]2C[C@@H]2COc2nc(C)ncc2-c2ccn(CCO)c(=O)c2)nc1` [Example 127, 1-(2-hydroxyethyl)-4-(4-(((1S,2S)-2-(5-methoxypyridin-2-yl)cyclopropyl)methoxy)-2-methylpyrimidin-5-yl)pyridin-2(1H)-one] was 0.64 nM; that for `COc1ccc([C@H]2C[C@@H]2COc2nc(C)ncc2-c2ccn(C)c(=O)c2SC)nc1` [Example 115, 4-(4-(((1S,2S)-2-(5-methoxypyridin-2-yl)cyclopropyl)methoxy)-2-methylpyrimidin-5-yl)-1-methyl-3-(methylthio)pyridin-2(1H)-one] was 18 nM.
With `COc1ccc([C@H]2C[C@@H]2COc2nc(C)ncc2-c2ccn(CC#N)c(=O)c2)nc1` [Example 111, 2-(4-(4-(((1S,2S)-2-(5-methoxypyridin-2-yl)cyclopropyl)methoxy)-2-methylpyrimidin-5-yl)-2-oxopyridin-1(2H)-yl)acetonitrile] the figure was 0.441 nM; with `COc1ccc([C@H]2C[C@@H]2COc2nc(C)ncc2-c2cc(=O)n(C)cc2[S+](C)[O-])nc1` (single isomer, unassigned) [Example 109, 4-(4-(((1S,2S)-2-(5-methoxypyridin-2-yl)cyclopropyl)methoxy)-2-methylpyrimidin-5-yl)-1-methyl-5-(methylsulfinyl)pyridin-2(1H)-one,R or S], 63.8 nM; with `COc1ccc([C@H]2C[C@@H]2COc2nc(C)ncc2-c2ccc(=O)n(OC)c2)nc1` [Example 22, 1-methoxy-5-(4-(((1S,2S)-2-(5-methoxypyridin-2-yl)cyclopropyl)methoxy)-2-methylpyrimidin-5-yl)pyridin-2(1H)-one], 1.9 nM.
In the case of `CCn1cc(-c2cnc(C)nc2OC[C@H]2C[C@@H]2c2ccc(OC)cn2)cc(C)c1=O` [Example 35, 1-ethyl-5-(4-(((1S,2S)-2-(5-methoxypyridin-2-yl)cyclopropyl)methoxy)-2-methylpyrimidin-5-yl)-3-methylpyridin-2(1H)-one], the Ki worked out at 0.381 nM.
In the case of `COc1ccc([C@H]2C[C@@H]2COc2nc(C)ncc2-c2cnn(C)c(=O)c2)nc1` [Example 136, 5-(4-(((1S,2S)-2-(5-methoxypyridin-2-yl)cyclopropyl)methoxy)-2-methylpyrimidin-5-yl)-2-methylpyridazin-3(2H)-one], the Ki came to 5.74 nM.
With `Cc1ccc([C@H]2C[C@@H]2COc2nc(C)ncc2-c2ccn(C)c(=O)c2)nc1` [Example 78, 1-methyl-4-(2-methyl-4-(((1S,2S)-2-(5-methylpyridin-2-yl)cyclopropyl)methoxy)pyrimidin-5-yl)pyridin-2(1H)-one] the figure was 1.73 nM.
With `Cc1ccc([C@H]2C[C@@H]2COc2nc(C)ncc2-c2ccn(C3CC3)c(=O)c2)nc1` [Example 133, 1-cyclopropyl-4-(2-methyl-4-(((1S,2S)-2-(5-methylpyridin-2-yl)cyclopropyl)methoxy)pyrimidin-5-yl)pyridin-2(1H)-one] the figure was 0.935 nM; with `COC(=O)Cn1ccc(-c2cnc(C)nc2OC[C@H]2C[C@@H]2c2ccc(OC)cn2)cc1=O` [Example 124, methyl 2-(4-(4-(((1S,2S)-2-(5-methoxypyridin-2-yl)cyclopropyl)methoxy)-2-methylpyrimidin-5-yl)-2-oxopyridin-1(2H)-yl)acetate], 0.284 nM; with `COc1ccc([C@H]2C[C@@H]2COc2nc(C)ncc2-c2cc(=O)n(C)nc2O)nc1` [Example 139, 6-hydroxy-5-(4-(((1S,2S)-2-(5-methoxypyridin-2-yl)cyclopropyl)methoxy)-2-methylpyrimidin-5-yl)-2-methylpyridazin-3(2H)-one], 21.2 nM.
As for `CCc1cc(-c2cnc(C)nc2OC[C@H]2C[C@@H]2c2ccc(OC)cn2)cn(C)c1=O` [Example 16, 3-ethyl-5-(4-(((1S,2S)-2-(5-methoxypyridin-2-yl)cyclopropyl)methoxy)-2-methylpyrimidin-5-yl)-1-methylpyridin-2(1H)-one], the inhibitory constant (Ki) stood at 0.185 nM.
The value for `Cc1ccc([C@H]2C[C@@H]2COc2nc(C)ncc2-c2cc(=O)n(C)cc2Cl)nc1` [Example 99, 5-chloro-1-methyl-4-(2-methyl-4-(((1S,2S)-2-(5-methylpyridin-2-yl)cyclopropyl)methoxy)pyrimidin-5-yl)pyridin-2(1H)-one] was 1.11 nM.
With `CCn1c(C)c(-c2cnc(C)nc2OC[C@H]2C[C@@H]2c2ccc(OC)cn2)ccc1=O` [Example 33, 1-ethyl-5-(4-(((1S,2S)-2-(5-methoxypyridin-2-yl)cyclopropyl)methoxy)-2-methylpyrimidin-5-yl)-6-methylpyridin-2(1H)-one], the Ki came out at 1.78 nM.
The value for `COC(=O)Cn1cc(-c2cnc(C)nc2OC[C@H]2C[C@@H]2c2ccc(C)cn2)ccc1=O` [Example 1, methyl 2-(5-(2-methyl-4-(((1S,2S)-2-(5-methylpyridin-2-yl)cyclopropyl)methoxy)pyrimidin-5-yl)-2-oxopyridin-1(2H)-yl)acetate] was 4.39 nM; that for `COc1ccc([C@H]2C[C@@H]2COc2nc(C)ncc2-c2ccc(=O)n(C)c2C)nc1` [Example 27, 5-(4-(((1S,2S)-2-(5-methoxypyridin-2-yl)cyclopropyl)methoxy)-2-methylpyrimidin-5-yl)-1,6-dimethylpyridin-2(1H)-one] was 0.113 nM.
The value for `Cc1ccc([C@H]2C[C@@H]2COc2nc(C)ncc2-c2cn(C)c(=O)cn2)nc1` [Example 62, 1-methyl-5-(2-methyl-4-(((1S,2S)-2-(5-methylpyridin-2-yl)cyclopropyl)methoxy)pyrimidin-5-yl)pyrazin-2(1H)-one] was 12.9 nM; that for `Cc1ncc(-c2ccc(=O)n(C)c2C)c(OC[C@H]2C[C@@H]2c2ccc3ccccc3n2)n1` [Example 34, 1,6-dimethyl-5-(2-methyl-4-(((1S,2S)-2-(quinolin-2-yl)cyclopropyl)methoxy)pyrimidin-5-yl)pyridin-2(1H)-one] was 0.006 nM; that for `Cc1ccc([C@H]2C[C@@H]2COc2nc(C)ncc2-c2ccc(=O)n(-c3ccccc3)c2)nc1` [Example 15, 5-(2-methyl-4-(((1S,2S)-2-(5-methylpyridin-2-yl)cyclopropyl)methoxy)pyrimidin-5-yl)-1-phenylpyridin-2(1H)-one] was 4.86 nM.
In the case of `Cc1ccc([C@H]2C[C@@H]2COc2nc(C)ncc2-c2ccn(C(C)C)c(=O)c2)nc1` [Example 91, 1-isopropyl-4-(2-methyl-4-(((1S,2S)-2-(5-methylpyridin-2-yl)cyclopropyl)methoxy)pyrimidin-5-yl)pyridin-2(1H)-one], the Ki is 1.2 nM.
On to `COc1cc(-c2cnc(C)nc2OC[C@H]2C[C@@H]2c2ccc3ccccc3n2)cn(C)c1=O` [Example 56, 3-methoxy-1-methyl-5-(2-methyl-4-(((1S,2S)-2-(quinolin-2-yl)cyclopropyl)methoxy)pyrimidin-5-yl)pyridin-2(1H)-one], for which the Ki stood at 0.004 nM.

Values taken from patent publication US9273033B2, “Substituted pyridone derivatives as PDE10 inhibitors” (Merck Sharp & Dohme Corp., priority 2012, dated 2016).
